Data on 28 compounds can be found in patent US8785439B2, “2,5,7-substituted oxazolopyrimidine derivatives” (Sanofi, priority 2010, dated 2014).

The target of the first assay is T1, human Edg-1 receptor (Homo sapiens, UniProt P21453).
T1 construct: FLAG (N); expressed in transfected cells; membrane preparation
T1 sequence (P21453 whole entry): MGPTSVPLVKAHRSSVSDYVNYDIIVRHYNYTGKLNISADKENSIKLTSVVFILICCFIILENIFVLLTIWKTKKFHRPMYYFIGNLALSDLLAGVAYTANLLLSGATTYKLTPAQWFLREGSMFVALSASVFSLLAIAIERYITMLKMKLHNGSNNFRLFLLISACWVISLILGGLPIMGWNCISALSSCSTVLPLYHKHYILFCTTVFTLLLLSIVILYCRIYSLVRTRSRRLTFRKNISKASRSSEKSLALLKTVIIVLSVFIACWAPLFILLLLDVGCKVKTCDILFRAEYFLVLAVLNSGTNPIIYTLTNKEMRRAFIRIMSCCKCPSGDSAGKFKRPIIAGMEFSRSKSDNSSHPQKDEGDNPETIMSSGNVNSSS
Kind of assay: GTP-γ-S assay using human Edg-1 receptors (SPA, CHO Flp-In cell membrane preparation). It counts as biochemical. The note with it: test compound at 10 μM; high control 10 μM S1P regarded as 100% activation; background-corrected; triplicate. The text has this: Determination of the Pharmacological Activity A) GTP-γ-S Assay Using Human Edg-1 Receptors
In order to determine the Edg-1 receptor activation by the compounds of the invention, a GTP-γ-S (guanosine 5′-[γ-thio]triphosphate) assay for G-protein coupled receptor binding based on the scintillation proximity assay principle was used, employing a cell membrane preparation from a CHO Flp-In cell line which constitutively overexpresses the human Edg-1 receptor.
The Flp-In™ expression system (Invitrogen, cat. no. K6010-01) allows the generation of stable mammalian cell lines into which the gene of interest has been integrated through homologous recombination at a specific genomic location called Flp Recombination Target (FRT) site by means of a Flp recombinase encoded by the pOG44 expression plasmid. The integration of the pcDNA5/FRT expression construct into the Flp-In host cell line genome results in the transcription of the gene of interest. The stably transfected cells become hygromycin-resistant.
One day prior to transfection, 200 000 Flp-In-CHO cells were seeded in Ham F-12 medium (Invitrogen, cat. no. 31765) supplemented with 10% fetal calf serum (FCS; Perbio Science, cat. no. SH30068.03) in a 6-well plate and incubated at 37° C./5% CO2 overnight. Using the FuGENE® 6 transfection reagent (Roche, cat. no. 11988387001), cells were cotransfected with the Flp recombinase expression plasmid pOG44 and a modified plasmid additionally containing the edg-1 gene (accession no. NM_001400) termed as pcDNA5-FRT-TO_nFLAG_DEST-EDG-1 with a 9:1 ratio. To obtain the modified pcDNA5-FRT-TO_nFLAG_DEST plasmid, the Invitrogen plasmid pcDNA5/FRT/TO (Invitrogen, cat. no. V6520-20) was adapted to the Gateway® (Invitrogen) cloning system by inserting a Gateway cassette containing attR recombination sites flanking a ccdB gene and a chloramphenicol-resistance gene (Gateway conversion system, Invitrogen, cat. no. 11828-029). In addition a FLAG tag epitope was added before the 5′ att recombination site to allow recombinant expression of N-terminally FLAG-tagged proteins.
For the transfection of one well, 1.08 μg of pOG44 and 0.12 μg of pcDNA5-FRT-TO_nFLAG_DEST-EDG-1 were mixed with 100 μl of serum-free Ham F-12 medium containing 6 μl of FuGENE® 6 transfection reagent. After 20 min of incubation, the transfection reagent/DNA complex was distributed dropwise on the cells. The cells were incubated for 24 h at 37° C. Then the cells from 3 wells each were transferred to a T75 flask (Greiner Cellstar®, cat. no. 658175) containing Ham F-12 medium supplemented with 10% of FCS but without antibiotic and were incubated another 24 h. 48 h after transfection, the medium was replaced by selection medium (Ham F-12 supplemented with 10% of FCS and 300 μg/ml of hygromycin B (Invitrogen, cat. no. 10687-010)). The medium was exchanged every 2 to 3 days until a resistant population of cells had grown. […] After 2 weeks of selection, the cells were transferred into T175 flasks (Greiner Cellstar®, cat. no. 660175) and cultivated for batch production. Cells were harvested from the culture flasks by short treatment (2 to 5 min) with Accutase (PAA, cat. no. L11-007), resuspended in selection medium (see above) and centrifuged at 200×g for 5 min. Cells were resuspended in a mixture of 90% of FCS and 10% of dimethylsulfoxide and stored frozen in liquid nitrogen.
A membrane preparation was obtained by standard methods from the afore-described CHO Flp-In cell line constitutively overexpressing the human Edg-1 receptor. Briefly, the cryopreserved cells were taken in culture and grown until confluency in T175 cell culture flasks (Becton Dickinson, cat. no. 35 5001). […]
Regarding “5-(2-fluoro-phenoxy)-2-(1-oxy-pyridin-3-yl)-7-propoxy-oxazolo[5,4-d]pyrimidine [Example 109]”, the “% Activation (Edg-1 receptor activation in percent of the activation by 10 μM S1P)” value was found to be 108%.

Staying with this assay, now noted: test compound at 10 μM; high control 10 μM S1P regarded as 100% activation; background-corrected; triplicate; read-out: % Activation (Edg-1 receptor activation in percent of the activation by 10 μM S1P).
On to `CCCOc1nc(Oc2ccc(Cl)c(Cl)c2)nc2oc(-c3cccc(C)c3)nc12` [Example 1, 5-(3,4-Dichloro-phenoxy)-7-propoxy-2-(3-methyl-phenyl)-oxazolo[5,4-d]pyrimidine], for which the activation at 10 µM came out at 62%.

For the compound `CCCOc1nc(OC2CCCCC2)nc2oc(-c3cccc(C)c3)nc12` [Example 2, 5-Cyclohexyloxy-7-propoxy-2-(3-methyl-phenyl)-oxazolo[5,4-d]pyrimidine], the activation at 10 µM is 90%.

Consider `CCCOc1nc(NC2CCOCC2)nc2oc(-c3cccc(C)c3)nc12` [Example 3, (7-Propoxy-2-(3-methyl-phenyl)-oxazolo[5,4-d]pyrimidin-5-yl)-(tetrahydro-pyran-4-yl)-amine], for which the activation at 10 µM is 74%.

Regarding `CCCOc1nc(Sc2nccs2)nc2oc(-c3cccc(C)c3)nc12` [Example 4], the activation at 10 µM was determined as 93%.

As for `CCCOc1nc(Oc2ccccc2F)nc2oc(-c3cc(C)c(OC)c(C)c3)nc12` [Example 5, 5-(2-Fluoro-phenoxy)-2-(4-methoxy-3,5-dimethyl-phenyl)-7-propoxy-oxazolo[5,4-d]pyrimidine], the activation at 10 µM is 111%.

With `CCCOc1nc(Oc2ccccc2F)nc2oc(-c3cc(C)c(O)c(C)c3)nc12` [Example 6, 5-(2-Fluoro-phenoxy)-2-(4-hydroxy-3,5-dimethyl-phenyl)-7-propoxy-oxazolo[5,4-d]pyrimidine], the activation at 10 µM was 105%.

Turning to `CCOc1nc(Oc2ccccc2F)nc2oc(-c3ccc[n+]([O-])c3)nc12` [Example 7, 7-Ethoxy-5-(2-fluoro-phenoxy)-2-(1-oxy-pyridin-3-yl)-oxazolo[5,4-d]pyrimidine], the activation at 10 µM was determined as 116%.

Take `COc1c(C)cc(-c2nc3c(OC4COC4)nc(Oc4ccccc4F)nc3o2)cc1C` [Example 8, 5-(2-Fluoro-phenoxy)-2-(4-methoxy-3,5-dimethyl-phenyl)-7-(oxetan-3-yloxy)-oxazolo[5,4-d]pyrimidine]: the activation at 10 µM was determined as 124%.

On to `C=CCCCOc1nc(OCCC)c2nc(-c3cccc(C)c3)oc2n1` [Example 9, 5-Pent-4-enyloxy-7-propoxy-2-(3-methylphenyl)-oxazolo[5,4-d]pyrimidine], for which the activation at 10 µM was found to be 87%.

Regarding `CCOc1nc(Oc2cc(C)nn2C)nc2oc(-c3cc(F)ccc3Cl)nc12` [Example 10, 2-(2-chloro-5-fluoro-phenyl)-5-(2,5-dimethyl-2H-pyrazol-3-yloxy)-7-ethoxy-oxazolo[5,4-d]pyrimidine], the activation at 10 µM turned out to be 107%.

On to `Cc1cc(Oc2nc(OCC3CC3)c3nc(-c4cc(F)ccc4Cl)oc3n2)n(C)n1` [Example 11, 2-(2-chloro-5-fluoro-phenyl)-7-cyclopropylmethoxy-5-(2,5-dimethyl-2H-pyrazol-3-yloxy)-oxazolo[5,4-d]pyrimidine], for which the activation at 10 µM is 105%.

With `CCOc1nc(Sc2ccc(F)c(F)c2)nc2oc(-c3cccc(C)c3)nc12` [Example 12, 5-(3,4-difluoro-phenylsulfanyl)-7-ethoxy-2-(3-methyl-phenyl)-oxazolo[5,4-d]pyrimidine], the activation at 10 µM amounted to 84%.

On to `O=S1(=O)CCC(Sc2nc(OCC3CC3)c3nc(-c4cc(F)ccc4Cl)oc3n2)C1` (stereo not shown) [Example 13, 2-(2-chloro-5-fluoro-phenyl)-7-cyclopropylmethoxy-5-(1,1-dioxo-tetrahydro-1lambda6-thiophen-3-ylsulfanyl)-oxazolo[5,4-d]pyrimidine], for which the activation at 10 µM was determined as 104%.

In the case of `CCCOc1nc(SC2CCS(=O)(=O)C2)nc2oc(-c3cccc(F)c3)nc12` (stereo not shown) [Example 14, 5-(1,1-dioxo-tetrahydro-1lambda6-thiophen-3-ylsulfanyl)-2-(3-fluoro-phenyl)-7-propoxy-oxazolo[5,4-d]pyrimidine], the activation at 10 µM came out at 72%.

In the case of `CCCOc1nc(Oc2ccccc2F)nc2oc(-c3ccc(Cl)c(Cl)c3)nc12` [Example 15, 2-(3,4-dichloro-phenyl)-5-(2-fluoro-phenoxy)-7-propoxy-oxazolo[5,4-d]pyrimidine], the activation at 10 µM worked out at 95%.

Regarding `C=CCCCOc1nc(OCC2CC2)c2nc(-c3cccc(C)c3)oc2n1` [Example 16, 7-cyclopropylmethoxy-5-pent-4-enyloxy-2-(3-methyl-phenyl)-oxazolo[5,4-d]pyrimidine], the activation at 10 µM was 83%.

In the case of `CCOc1nc(Oc2cccc(S(=O)(=O)N(C)C)c2)nc2oc(-c3cccc(C)c3)nc12` [Example 17, 3-(7-ethoxy-2-(3-methyl-phenyl)-oxazolo[5,4-d]pyrimidin-5-yloxy)-N,N-dimethyl-benzenesulfonamide], the activation at 10 µM came out at 55%.

On to `CCCOc1nc(Oc2ccc(C)nn2)nc2oc(-c3cccc(F)c3)nc12` [Example 18, 2-(3-fluoro-phenyl)-5-(6-methyl-pyridazin-3-yloxy)-7-propoxy-oxazolo[5,4-d]pyrimidine], for which the activation at 10 µM came to 42%.

In the case of `CCCOc1nc(Oc2ccc(C)nn2)nc2oc(-c3cccc(C)c3)nc12` [Example 19, 5-(6-methyl-pyridazin-3-yloxy)-7-propoxy-2-(3-methyl-phenyl)-oxazolo[5,4-d]pyrimidine], the activation at 10 µM stood at 62%.

As to `CCCOc1nc(Oc2cccc(S(N)(=O)=O)c2)nc2oc(-c3cccc(C)c3)nc12` [Example 20, 3-(7-propoxy-2-(3-methyl-phenyl)-oxazolo[5,4-d]pyrimidin-5-yloxy)-benzenesulfonamide], the activation at 10 µM is 83%.

In the case of `CCOc1nc(Oc2cccc(S(N)(=O)=O)c2)nc2oc(-c3cc(F)ccc3Cl)nc12` [Example 21, 3-[2-(2-chloro-5-fluoro-phenyl)-7-ethoxy-oxazolo[5,4-d]pyrimidin-5-yloxy]-benzenesulfonamide], the activation at 10 µM amounted to 81%.

On to `CCOc1nc(Oc2cccc(S(N)(=O)=O)c2)nc2oc(-c3cccc(C)c3)nc12` [Example 22, 3-(7-ethoxy-2-(3-methyl-phenyl)-oxazolo[5,4-d]pyrimidin-5-yloxy)-benzenesulfonamide], for which the activation at 10 µM amounted to 100%.

In the case of `CCCOc1nc(Oc2cccc(S(N)(=O)=O)c2)nc2oc(-c3cccc(F)c3)nc12` [Example 23, 3-[2-(3-fluoro-phenyl)-7-propoxy-oxazolo[5,4-d]pyrimidin-5-yloxy]-benzenesulfonamide], the activation at 10 µM turned out to be 47%.

For the compound `CCCOc1nc(Oc2cc(C)nn2C)nc2oc(-c3cccc(F)c3)nc12` [Example 24, 5-(2,5-dimethyl-2H-pyrazol-3-yloxy)-2-(3-fluoro-phenyl)-7-propoxy-oxazolo[5,4-d]pyrimidine], the activation at 10 µM is 99%.

As to `CCCOc1nc(Oc2cc(C)nn2C)nc2oc(-c3cccc(C)c3)nc12` [Example 25, 5-(2,5-dimethyl-2H-pyrazol-3-yloxy)-7-propoxy-2-(3-methyl-phenyl)-oxazolo[5,4-d]pyrimidine], the activation at 10 µM came out at 110%.

For the compound `CCOc1nc(Oc2cc(C)nn2C)nc2oc(-c3cccc(C)c3)nc12` [Example 26, 5-(2,5-dimethyl-2H-pyrazol-3-yloxy)-7-ethoxy-2-(3-methyl-phenyl)-oxazolo[5,4-d]pyrimidine], the activation at 10 µM stood at 101%.

In the case of `CCCOc1nc(SC2CCS(=O)(=O)C2)nc2oc(-c3cccc(C)c3)nc12` (stereo not shown) [Example 27, 5-(1,1-dioxo-tetrahydro-1lambda6-thiophen-3-ylsulfanyl)-7-propoxy-2-(3-methyl-phenyl)-oxazolo[5,4-d]pyrimidine], the activation at 10 µM was 93%.
